US6906049B1, “Contraceptive medicine based on a progestational agent and an oestrogen and preparation method” (Laboratoire Theramex, priority 1996, dated 2005)

Columns and labels:
[1] = tested on: ovulation; settings: cited from earlier work
[2] = tested on: female volunteers in the period of ovarian activity; assay: Randomized double-blind study of the anti-ovulatory action of the oestradiol/nomegestrol acetate combination in 38 female volunteers; type: in vivo, women; settings: day 1-21, m ± sem
Protocol: The anti-ovulatory action of the oestradiol/nomegestrol acetate combination was evaluated in a randomized double-blind study on 38 female volunteers, in good health, aged 18 to 35, in the period of ovarian activity, for whom it was checked beforehand, by means of an assay of the progesterone in the plasma and the establishment of a temperature curve, that they had ovulatory menstrual cycles.
The women were monitored for two consecutive cycles: the first was a control cycle without treatment; during the following cycle (cycle under treatment), they received a hormonal treatment administered orally daily from the 1st to the 21st day of the cycle.
According to the randomization: • 9 women received 1.5 mg of oestradiol+0.625 mg of nomegestrol acetate (group A), • 10 others received 1.5 mg of oestradiol+1.25 mg of nomegestrol acetate (group B), • another 10 received 1.5 mg of oestradiol+2.5 mg of nomegestrol acetate (group C), • and the other 9 were treated with nomegestrol acetate alone at a dose of.2.5 mg (group D).
During the control cycle, the hormonal parameters were not significantively different among the four groups. Table I indicates the mean concentrations observed for each hormonal parameter in the course of the 21 days of treatment.

[3] = tested on: women; assay: Another clinical trial, same methodology, with the progestative agent alone; type: in vivo; settings: NOMAC 1.25 mg alone (n=3), treated cycle
Protocol: This synergistic effect of oestradiol is confirmed by comparing the results of this study with those of another clinical trial performed according to the same methodology, but with the progestative agent alone. […] On the other hand, the addition of oestradiol lowers the plasmatic levels of oestradiol, assayed 24 hours after taking the medicinal product, by about […]; this parameter is a good reflection of the endogenous secretion of the ovaries (Table II).

[4] = tested on: endometrium; assay: Clinical trial similar to the Kaufmann's trial (endometrial conversion); type: in vivo, women
Excerpt: (§1) The ratio of the ovulation-inhibiting activity in women (in mg/day) to the endometrial luteinizing |activity (in mg/cycle) as defined by Neumann (1977) is thus in the order of 0.2, i.e. close to those of cyproterone acetate and chlormadinone acetate; this indicates a strong central activity (Oettel et al., 1999). In this sense, it clearly differs from dienogest, whose activity is disequilibrated to the benefit of the peripheral activity.

[5] = tested on: ovulation; assay: Inhibition of ovulation in women (literature data); type: in vivo; settings: as defined by Neumann (1977)
Protocol: The oestrogenic component involves oestradiol or an ester or an ether thereof, such as, for example, the valerate, benzoate, enanthate, etc., the doses used being calculated as oestradiol equivalents. The doses range from 0.3 mg to 3 mg per day with a preference for a range from 0.5 mg to 2 mg per day. According to the literature data (Hirvonen, 1995), a dose of 4 mg is needed to ensure the inhibition of ovulation, but they correspond to the doses used to compensate for hypooestrogenic states. For example, in menopausal women, the dose recommended to compensate for hypooestrogenic states is about 1.5 mg.
as §1

Row | SMILES | Dose needed to ensure the inhibition of ovulation ([1]; oestradiol alone, Hirvonen, 1995) [mg] | LH mean concentration in the plasma ([2]; Group D (n=9): 2.5 mg NOMAC alone oral daily) [mIU/ml] | FSH mean concentration in the plasma ([2]; Group D: 2.5 mg NOMAC alone) [mIU/ml] | Oestradiol mean concentration in the plasma ([2]; Group D: 2.5 mg NOMAC alone) [pg/mL] | Progesterone mean concentration in the plasma ([2]; Group D: 2.5 mg NOMAC alone) [ng/mL] | FSH mean concentration in the plasma [3] [mIU/ml] | LH mean concentration in the plasma [3] [mIU/ml] | Oestradiol mean concentration in the plasma [3] [pg/mL] | Daily dose giving endometrial conversion ([4]; daily dose) [mg] | Dose for the entire cycle giving endometrial conversion ([4]; entire cycle) [mg] | Ratio of ovulation-inhibiting activity (mg/day) to endometrial luteinizing activity (mg/cycle) [5] | Effect on ovulation ([1]; given alone at 1.25 mg per day, oestradiol level in plasma increases) | Daily dose giving inhibition of ovulation and of follicle development in women ([1]; nomegestrol acetate alone, Bazin et al., 1987) [mg]
1 | C[C@]12CC[C@@H]3c4ccc(O)cc4CC[C@H]3[C@@H]1CC[C@@H]2O [oestradiol, 17beta-oestradiol] | 4 | – | – | – | – | – | – | – | – | – | – | – | –
2 | CC(=O)O[C@]1(C(C)=O)CC[C@H]2[C@@H]3C=C(C)C4=CC(=O)CC[C@@H]4[C@H]3CC[C@@]21C [NOMAC, nomegestrol acetate] | – | 5.6 ± 0.62 | 7.6 ± 0.28 | 31.9 ± 3.91 | 0.07 ± 0.014 | 3.3 | 3.1 | 158.8 | 1 | 10 | ~0.2 | abolishes ovulation | 2.5
